In PubChem BioAssay (NCI):
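Cells were grown in 96-well plates and exposed to each compound for 48 hours at five concentrations; endpoints were interpolated linearly between bracketing concentrations, or set to the highest concentration if not reached. The concentration for 50% growth inhibition is given as GI50. TGI: total growth inhibition.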

How the values were obtained:
Assay in all cases: growth of human tumour cells (NCI), 48 h
[1] = system: A549 NSCLC
[2] = system: BT-549 breast
[3] = system: CCRF-CEM leukemia
[4] = system: DU-145 prostate
[5] = system: EKVX NSCLC
[6] = system: KM12 colon
[7] = system: NCI/ADR-RES ovarian
[8] = system: SF-268 CNS
[9] = system: U251 CNS
[10] = system: MDA-MB-435

SMILES	TGI [1] [µM]	TGI [2] [µM]	TGI [3] [µM]	TGI [4] [µM]	TGI [5] [µM]	TGI [6] [µM]	TGI [7] [µM]	TGI [8] [µM]	TGI [9] [µM]	GI50 [1] [µM]	GI50 [3] [µM]	GI50 [5] [µM]	GI50 [6] [µM]	GI50 [8] [µM]	GI50 [9] [µM]	TGI [10] [µM]	GI50 [2] [µM]	GI50 [4] [µM]	GI50 [10] [µM]	GI50 [7] [µM]
C=C(C)C1Cc2c(cc(OC)c3c(=O)c4cccc(O)c4oc23)O1 (stereo not drawn)	88.8	34.8	> 100	> 100	> 100	> 100	> 100	43.4	34.8	–	–	–	–	–	–	–	–	–	–	–
[Cl][Sn]([Cl])([c]1ccccc1)[c]1ccccc1	39.2	–	5.76	–	32.1	39.1	–	30.4	28.6	19.8	1.74	17.8	19.6	13.2	13.4	–	–	–	–	–
Cc1cc(Cl)cc2c(N=Nc3ccccc3[N+](=O)[O-])c(O)[nH]c12	> 100	> 100	> 100	> 100	> 100	> 100	–	> 100	> 100	–	–	–	–	–	–	> 100	–	–	–	–
N#Cc1ncc(-c2ccc(C(F)(F)F)cc2)c(NCc2cc(C(F)(F)F)cc(C(F)(F)F)c2)n1	21.1	> 100	49.8	> 100	–	10.1	65.8	> 100	53.5	3.11	2.26	–	3.17	8.17	3.66	> 100	5.88	5.19	3.42	3.23
CCN(CC)CCCn1cnc2ncccc2c1=O	> 100	–	> 100	–	> 100	> 100	–	> 100	> 100	–	–	–	–	–	–	–	–	–	–	–
Cc1noc2cccc(OCc3ccccc3)c12	> 100	–	> 100	–	> 100	> 100	–	> 100	> 100	–	–	–	–	–	–	–	–	–	–	–
CCOC(=O)N1C2C=C(C)C(ON2C(=O)c2ccccc2)C2C(C)C(=O)N21 (stereo not drawn)	> 100	–	> 100	–	> 100	> 100	–	> 100	> 100	–	–	–	–	–	–	–	–	–	–	–
COc1ccc2c(c1)C(=O)N1CCOC1C2C(=O)O (stereo not drawn)	> 100	–	> 100	–	> 100	> 100	–	> 100	> 100	–	–	–	–	–	–	–	–	–	–	–
Nc1ncnc2c1ncn2Cc1ccc(C23CC4CC(CC(C4)C2)C3)c(OCc2cc(F)c(F)cc2F)c1	14.7	> 100	6.84	> 100	–	> 100	> 100	> 100	42.8	3.61	2.4	–	3.92	8.57	5.59	> 100	> 100	15.3	5.22	6.49
C/C(=N\NC(N)=S)c1cc(C)c(C)cc1C	> 100	–	> 100	–	> 100	71.2	–	> 100	> 100	–	–	–	–	–	–	–	–	–	–	–
C/C=C/C1=C(Cl)C(=O)[C@@H](Cl)[C@@]1(O)C(=O)OC	24.3	–	> 24	–	9.27	22.2	6.23	24.2	18.8	–	–	–	–	–	–	–	–	–	–	–
